Reference: patent EP0993439B1, “4-BROMO OR 4-IODO PHENYLAMINO BENZHYDROXAMIC ACID DERIVATIVES AND THEIR USE AS MEK INHIBITORS” (priority 1997, dated 1999)

Tests used:
MEK [1] = target: T1, MEK (Homo sapiens, UniProt Q02750); assay: Cascade assay for inhibitors of the MAP kinase pathway (32P incorporation into MBP with GST-MEK and GST-MAPK); type: biochemical; details: read-out: % Inhibition In Vitro
Protocol: Incorporation of ^32P into myelin basic protein (MBP) was assayed in the presence of a glutathione S-transferase fusion protein containing p44MAP kinase (GST-MAPK) and a glutathione S-transferase fusion protein containing p45MEK (GST-MEK). The assay solution contained 20 mM HEPES, pH 7.4, 10 mM MgCl2, 1 mM MnCl2, 1 mM EGTA, 50 µM [γ-^32P]ATP, 10 µg GST-MEK, 0.5 µg GST-MAPK and 40 µg MBP in a final volume of 100 µL. […] Compounds were assessed at 10 µM for ability to inhibit incorporation of ^32P.
To ascertain whether compounds were inhibiting GST-MEK or GST MAPK, two additional protocols were employed. In the first protocol, compounds were added to tubes containing GST-MEK, followed by addition of GST-MAPK, MBP and [γ-^32P]ATP. In the second protocol, compounds were added to tubes containing both GST-MEK and GST-MAPK, followed by MBP and [γ-^32P]ATP.

MEK [2] = target: T1, MEK; assay: as above; type: biochemical; details: read-out: % Inhibition In Vitro; remark: listed apart in the source
[3] = system: murine colon tumor, C26/clone 10; assay: Murine colon tumor C26/clone 10 implanted subcutaneously in mice, compound given IP or PO on Days 1 through 14; type: in vivo, Male CD2F1 mice; details: for Change in Body Weight (grams): Days 1 through 14
Protocol: Male CD2F1 mice (NCI: Charles River, Kingston) were implanted subcutaneously with tumor fragments (approximately 30 mg) in the region of the right axilla on Day 0. […] The vehicle for the test compound, and for control animals, was 10% EtOH/10% Cremophor-EL (Sigma)/80% H2O, pH 5.0. Tumor volumes were recorded three times per week by measuring the length and width of the individual tumors and calculating mass in milligrams according to the formula (a × b^2)/2, where a and b are the length and width of the tumor. Percent treated/control (T/C) was calculated based on the ratio of the median tumor volume of the treated tumors compared with the median tumor volume of control animals on specified measurement days.

T1 sequence (Q02750 whole entry, the tested form may be a part): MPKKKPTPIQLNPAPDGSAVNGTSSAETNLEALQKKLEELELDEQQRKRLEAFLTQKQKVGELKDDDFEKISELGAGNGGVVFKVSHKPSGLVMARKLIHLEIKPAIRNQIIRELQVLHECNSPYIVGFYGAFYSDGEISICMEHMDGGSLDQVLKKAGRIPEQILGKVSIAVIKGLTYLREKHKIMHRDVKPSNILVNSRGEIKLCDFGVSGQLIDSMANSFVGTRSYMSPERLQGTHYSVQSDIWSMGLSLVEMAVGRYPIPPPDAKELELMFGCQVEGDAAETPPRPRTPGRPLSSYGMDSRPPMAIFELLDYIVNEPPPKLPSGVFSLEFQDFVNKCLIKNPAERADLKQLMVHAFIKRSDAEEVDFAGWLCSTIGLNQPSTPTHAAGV

| inhibition at 10 µM (MEK [1]) | inhibition at 1 µM (MEK [2]) | SMILES | further results |
| --- | --- | --- | --- |
| 19% | -5% | Cc1ccc(Cl)c(Nc2ccccc2C(=O)N(C)O)c1Cl [the 8th table: R6=CH3, R7=H] |  |
| 19% | 13% | Cc1cccc(Nc2ccccc2C(=O)N(C)O)c1C [the 9th table: R6=CH3, R7=H] |  |
| 8% | -8% | CONC(=O)c1ccccc1Nc1c(Cl)ccc(C)c1Cl [the 8th table: R6=H, R7=CH3] |  |
| 12% | -6% | CONC(=O)c1ccccc1Nc1cccc(C)c1C [the 9th table: R6=H, R7=CH3] |  |
| 9% | 17% | Cc1ccc(Cl)c(Nc2ccccc2C(=O)N(O)C(C)C)c1Cl [the 8th table: R6=iPr, R7=H] |  |
| -3% | 9% | Cc1ccc(Cl)c(Nc2ccccc2C(=O)NO)c1Cl [the 8th table: R6=H, R7=H] |  |
| 7% | -11% | Cc1cccc(Nc2ccccc2C(=O)N(O)C(C)C)c1C [the 9th table: R6=iPr, R7=H] |  |
| 18% | -4% | Cc1ccc(Cl)c(Nc2ccccc2C(=O)N(O)Cc2ccccc2)c1Cl [the 8th table: R6=CH2-Ph, R7=H] |  |
| -4% | 6% | Cc1cccc(Nc2ccccc2C(=O)NO)c1C [the 9th table: R6=H, R7=H] |  |
|  |  | O=C(NOCC1CC1)c1ccc(F)c(F)c1Nc1ccc(I)cc1Cl [Example 95, 3,4-Difluoro-2-(2-chloro-4-iodo-phenylamino)-N-cyclopropylmethoxy-benzamide] | % T/C (Day 15) ([3]; IP, 48 mg/kg/day): 41%; Change in Body Weight (grams) ([3]; IP, 48 mg/kg/day): +3 grams; % T/C (Day 15) ([3]; IP, 77 mg/kg/day): 2%; Change in Body Weight (grams) ([3]; IP, 77 mg/kg/day): +2 grams; % T/C (Day 15) ([3]; IP, 124 mg/kg/day): 4%; Change in Body Weight (grams) ([3]; IP, 124 mg/kg/day): +3 grams; % T/C (Day 15) ([3]; IP, 200 mg/kg/day): 0%; Change in Body Weight (grams) ([3]; IP, 200 mg/kg/day): +2 grams; % T/C (Day 17) ([3]; PO, 71 mg/kg/day): 36%; Change in Body Weight (grams) ([3]; PO, 71 mg/kg/day): +2 grams; % T/C (Day 17) ([3]; PO, 115 mg/kg/day): 21%; Change in Body Weight (grams) ([3]; PO, 115 mg/kg/day): +2 grams; % T/C (Day 17) ([3]; PO, 186 mg/kg/day): 25%; Change in Body Weight (grams) ([3]; PO, 186 mg/kg/day): +2 grams; % T/C (Day 17) ([3]; PO, 300 mg/kg/day): 17%; Change in Body Weight (grams) ([3]; PO, 300 mg/kg/day): +2 grams |
